Reference: patent US20140187548A1, “6 SUBSTITUTED IMIDAZOPYRAZINES FOR USE AS MPS-1 AND TKK INHIBITORS IN THE TREATMENT OF HYPERPROLIFERATIVE DISORDERS” (BAYER INTELLECTUAL PROPERTY GMBH, priority 2010, published 2014)

What follows are compounds tested against T1, human kinase Mps-1 (Homo sapiens, UniProt P33981) (assay: Mps-1 kinase assay (TR-FRET)). Details: N-terminally GST-tagged human full length recombinant Mps-1; 10 μM ATP; 1 μM peptide substrate; 15 min pre-incubation; 60 min at 22° C.
T1 construct: N-terminally GST-tagged human full length recombinant Mps-1 kinase; GST (N); purchased Invitrogen, Karslruhe, Germany PV4071
T1 sequence (P33981 1-857): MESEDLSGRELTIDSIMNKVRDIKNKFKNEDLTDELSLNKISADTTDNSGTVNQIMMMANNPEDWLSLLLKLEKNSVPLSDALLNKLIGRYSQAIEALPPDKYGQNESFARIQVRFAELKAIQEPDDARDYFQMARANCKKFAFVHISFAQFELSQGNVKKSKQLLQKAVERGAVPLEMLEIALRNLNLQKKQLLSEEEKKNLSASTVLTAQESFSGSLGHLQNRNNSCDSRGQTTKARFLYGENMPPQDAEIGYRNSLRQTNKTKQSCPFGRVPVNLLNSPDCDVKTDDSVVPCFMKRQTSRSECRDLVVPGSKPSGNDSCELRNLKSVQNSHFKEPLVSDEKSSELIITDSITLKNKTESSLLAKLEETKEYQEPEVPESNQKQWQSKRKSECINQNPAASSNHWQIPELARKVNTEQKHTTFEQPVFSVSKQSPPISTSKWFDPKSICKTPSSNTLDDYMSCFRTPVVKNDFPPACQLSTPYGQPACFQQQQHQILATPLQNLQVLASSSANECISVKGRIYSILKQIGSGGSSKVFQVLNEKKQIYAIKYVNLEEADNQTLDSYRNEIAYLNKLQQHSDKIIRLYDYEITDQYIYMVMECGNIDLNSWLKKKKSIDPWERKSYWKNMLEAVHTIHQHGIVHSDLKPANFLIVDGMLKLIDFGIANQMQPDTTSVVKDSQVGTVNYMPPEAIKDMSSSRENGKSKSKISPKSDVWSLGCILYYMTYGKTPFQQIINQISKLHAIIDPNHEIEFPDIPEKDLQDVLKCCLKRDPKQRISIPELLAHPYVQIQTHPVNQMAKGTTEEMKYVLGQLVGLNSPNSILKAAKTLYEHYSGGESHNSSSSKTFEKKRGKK
Type: biochemical
In short: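 N-terminally GST-tagged full-length recombinant human Mps-1, about 1 nM final, phosphorylates a biotinylated peptide. Product detected by TR-FRET from Eu-anti-phospho-Ser/Thr antibody to streptavidin-XLent after 1 h at 22° C.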

| Structure (SMILES) | IC50 |
| --- | --- |
| CC(C)CNc1nc(-c2ccc(F)c(F)c2)cn2c(-c3ccc(C(=O)NC4CC4)cc3)cnc12 [Example 1-63, N-cyclopropyl-4-{6-(3,4-difluorophenyl)-8-[(2-methylpropyl)amino]imidazo[1,2-a]pyrazin-3-yl}benzamide] | 7.7 nM |
| CC(C)CNc1nc(-c2ccccc2Oc2ccccc2)cn2c(-c3ccc(C(=O)NC4CC4)cc3)cnc12 [Example 1-64, N-cyclopropyl-4-{8-[(2-methylpropyl)amino]-6-(2-phenoxyphenyl)imidazo[1,2-a]pyrazin-3-yl}benzamide] | 74.3 nM |
| CC(C)CNc1nc(-c2ccccc2O)cn2c(-c3ccc(C(=O)NC4CC4)cc3)cnc12 [Example 1-65, N-cyclopropyl-4-{6-(2-hydroxyphenyl)-8-[(2-methylpropyl)amino]imidazo[1,2-a]pyrazin-3-yl}benzamide] | 8.5 nM |
| COc1c(C)cc(-c2cn3c(-c4ccc(C(=O)NC5CC5)cc4)cnc3c(NCC(C)C)n2)cc1C [Example 1-68, N-cyclopropyl-4-{6-(4-methoxy-3,5-dimethylphenyl)-8-[(2-methyl-propyl)amino]imidazo [1,2-a]pyrazin-3-yl} benzamide] | 19.7 nM |
| CC(C)CNc1nc(-c2cccc(-c3ccccc3)c2)cn2c(-c3ccc(C(=O)NC4CC4)cc3)cnc12 [Example 1-69, 4-{6-(biphenyl-3-yl)-8-[(2-methylpropyl)amino]imidazo[1,2-a]pyrazin-3-yl}-N-cyclopropyl-benzamide] | 19.9 nM |
| COc1ccc(Cl)cc1-c1cn2c(-c3ccc(C(=O)NC4CC4)cc3)cnc2c(NCC(C)C)n1 [Example 1-71, 4-{6-(5-chloro-2-methoxy-phenyl)-8-[(2-methyl-propyl)amino]imidazo [1,2-a]pyrazin-3-yl}-N-cyclopropylbenzamide] | 35.9 nM |
| CC(C)CNc1nc(-c2ccc3[nH]ccc3c2)cn2c(-c3ccc(C(=O)NC4CC4)cc3)cnc12 [Example 1-74, N-cyclopropyl-4-{6-(1H-indol-5-yl)-8-[(2-methyl-propyl)amino]imidazo [1,2-a]pyrazin-3-yl} benzamide] | 37.7 nM |
| COc1ccc2cc(-c3cn4c(-c5ccc(C(=O)NC6CC6)cc5)cnc4c(NCC(C)C)n3)ccc2c1 [Example 1-79, N-cyclopropyl-4-{6-(6-methoxynaphthalen-2-yl)-8-[(2-methylpropyl)amino]imidazo[1,2-a]pyrazin-3-yl}benzamide] | 32.7 nM |
| Cc1ccc(-c2cn3c(-c4ccc(C(=O)NC5CC5)cc4)cnc3c(NCC(C)C)n2)cc1Cl [Example 1-80, 4-{6-(3-chloro-4-methyl-phenyl)-8-[(2-methylpropyl)amino]imidazo [1,2-a]pyrazin-3-yl}-N-cyclopropylbenzamide] | 20.7 nM |
| CC(C)CNc1nc(-c2ccc(OCC(C)C)cc2)cn2c(-c3ccc(C(=O)NC4CC4)cc3)cnc12 [Example 1-81, N-cyclopropyl-4-{6-[4-(2-methylpropoxy)phenyl]-8-[(2-methylpropyl)amino]imidazo[1,2-a]pyrazin-3-yl}benzamide] | 347 nM |
| CC(C)CNc1nc(-c2ccc(C(=O)NC3CC3)c(Cl)c2)cn2c(-c3ccc(C(=O)NC4CC4)cc3)cnc12 [Example 1-83, 2-chloro-N-cyclopropyl-4-{3-[4-(cyclopropyl-carbamoyl)phenyl]-8-[(2-methylpropyl)amino]imidazo[1,2-a]pyrazin-6-yl}benzamide] | 6.9 nM |

Other lines, results leading:

| IC50 | Structure (SMILES) |
| --- | --- |
| 2.2 nM | CC(C)CNc1nc(-c2cccc(O)c2)cn2c(-c3ccc(C(=O)NC4CC4)cc3)cnc12 [Example 1-66, N-cyclopropyl-4-{6-(3-hydroxyphenyl)-8-[(2-methylpropyl)amino]imidazo[1,2-a]pyrazin-3-yl}benzamide] |
| 3.5 nM | CC(C)CNc1nc(-c2ccc(O)cc2)cn2c(-c3ccc(C(=O)NC4CC4)cc3)cnc12 [Example 1-67, N-cyclopropyl-4-{6-(4-hydroxyphenyl)-8-[(2-methylpropyl)amino]imidazo[1,2-a]pyrazin-3-yl}benzamide] |
| 3.2 nM | CSc1ccccc1-c1cn2c(-c3ccc(C(=O)NC4CC4)cc3)cnc2c(NCC(C)C)n1 [Example 1-70, N-cyclopropyl-4-{8-[(2-methylpropyl)amino]-6-[2-(methylsulfanyl)phenyl]imidazo[1,2-a]pyrazin-3-yl}benzamide] |
| 4.6 nM | CC(C)CNc1nc(-c2cccc(C#N)c2)cn2c(-c3ccc(C(=O)NC4CC4)cc3)cnc12 [Example 1-72, 4-{6-(3-cyanophenyl)-8-[(2-methylpropyl)amino]imidazo[1,2-a]pyrazin-3-yl}-N-cyclo-propylbenzamide] |
| 2.1 nM | CC(C)CNc1nc(-c2ccc(C#N)cc2)cn2c(-c3ccc(C(=O)NC4CC4)cc3)cnc12 [Example 1-73, 4-{6-(4-cyanophenyl)-8-[(2-methylpropyl)amino]imidazo[1,2-a]pyrazin-3-yl}-N-cyclo-propylbenzamide] |
| 2.5 nM | CC(C)CNc1nc(-c2ccc(S(C)(=O)=O)cc2)cn2c(-c3ccc(C(=O)NC4CC4)cc3)cnc12 [Example 1-75, N-cyclopropyl-4-{8-[(2-methylpropyl)amino]-6-[4-(methylsulfonyl)phenyl]imidazo[1,2-a]pyrazin-3-yl}benzamide] |
| 3.3 nM | CC(C)CNc1nc(-c2ccc3ncccc3c2)cn2c(-c3ccc(C(=O)NC4CC4)cc3)cnc12 [Example 1-76, N-cyclopropyl-4-{8-[(2-methylpropyl)amino]-6-(quinolin-6-yl)imidazo [1,2-a]pyrazin-3-yl} benzamide] |
| 1.2 nM | CC(C)CNc1nc(-c2ccccc2CO)cn2c(-c3ccc(C(=O)NC4CC4)cc3)cnc12 [Example 1-77, N-cyclopropyl-4-{6-[2-(hydroxymethyl)phenyl]-8-[(2-methylpropyl)amino]imidazo[1,2-a]pyrazin-3-yl}benzamide] |
| 1.6 nM | CNC(=O)c1ccc(-c2cn3c(-c4ccc(C(=O)NC5CC5)cc4)cnc3c(NCC(C)C)n2)cc1Cl [Example 1-82, 2-chloro-4-{3-[4-(cyclopropylcarbamoyl)phenyl]-8-[(2-methylpropyl)amino]imidazo[1,2-a]pyrazin-6-yl}-N-methyl benzamide] |
| 4.5 nM | CC(C)CNc1nc(-c2ccc(Cl)c(C(=O)NC3CC3)c2)cn2c(-c3ccc(C(=O)NC4CC4)cc3)cnc12 [Example 1-84, 2-chloro-N-cyclopropyl-5-{3-[4-(cyclopropyl-carbamoyl)phenyl]-8-[(2-methylpropyl)amino]imidazo[1,2-a]pyrazin-6-yl}benzamide] |
| 2.6 nM | CC(C)CNc1nc(-c2ccc(F)c(C(=O)NC(C)C)c2)cn2c(-c3ccc(C(=O)NC4CC4)cc3)cnc12 [Example 1-85, 5-{3-[4-(cyclopropyl-carbamoyl)phenyl]-8-[(2-methylpropyl)amino]imidazo[1,2-a]pyrazin-6-yl}-2-fluoro-N-(propan-2-yl)benzamide] |
| 6.2 nM | CC(C)CNc1nc(-c2ccc(C(=O)NC(C)C)c(F)c2)cn2c(-c3ccc(C(=O)NC4CC4)cc3)cnc12 [Example 1-86, 4-{3-[4-(cyclopropyl-carbamoyl)phenyl]-8-[(2-methylpropyl)amino]imidazo[1,2-a]pyrazin-6-yl}-2-fluoro-N-(propan-2-yl)benzamide] |
| 6.7 nM | CC(C)CNc1nc(-c2ccc(Cl)cc2Cl)cn2c(-c3ccc(C(=O)NC4CC4)cc3)cnc12 [Example 1-87, N-cyclopropyl-4-{6-(2,4-dichlorophenyl)-8-[(2-methylpropyl)amino]imidazo[1,2-a]pyrazin-3-yl}benzamide] |
